Data as given in patent US20040097515A1, “Antimicrobial drug reduced in effect on heart” (priority 2001, published 2004).
“Also recorded” adds a separate entry of the source.

Key:
[1] = Japanese Journal of Chemotherapy, Volume 47, 1999; cited from earlier work
[2] = Japanese Journal of Chemotherapy, Volume 47, 1999; cited from earlier work; remark: listed apart in the source
S. aureus, FDA 209-P = assay: Antimicrobial activity, standard method of Japanese Society of Chemotherapy; type: cell-based
Description: (§1) The antimicrobial activity of the thus-obtained compound was measured by means of the standard method of Japanese Society of Chemotherapy.

P. aeruginosa, 32104 = assay: as above; type: cell-based
Description: as §1

S. epidermidis, 56500 = assay: as above; type: cell-based
Description: as §1

S. marcescens, 101000 = assay: as above; type: cell-based
Description: as §1

E. Coli, NIHJ = assay: as above; type: cell-based
Description: as §1

P. vulgaris 08601 = assay: as above; type: cell-based
Description: as §1

P. aeruginosa, 32121 = assay: as above; type: cell-based
Description: as §1

E. faecalis, 19433 = assay: as above; type: cell-based
Description: as §1

[3] = system: guinea pig right ventricular myocardium sample; assay: APD prolonging effect, action potential of guinea pig right ventricular myocardium sample; type: cell-based; settings: for relative strength of APD prolonging effect, Tukey test / APD prolonging effect (rate of change in APD90 with respect to the initial value), Average: after 60 minute-exposure; for relative strength of APD prolonging effect, Tukey test: statistically significant difference; for relative strength of APD prolonging effect: at each of the measured points; for myocardial action potential duration, effect of exposure: exposed for 10 minutes or more, paired t-test; for APD prolonging effect (rate of change in APD90 with respect to the initial value), Average: Dose 100 (μM)
Description: Slc: Hartley male guinea pigs (body weight: 322 to 667 g each) were employed as subjects.
Each of compound (I), compound (II), and gatifloxacin was dissolved in an aqueous 1% lactic acid solution, to thereby prepare a 10 mM solution. The resultant solution was employed as a drug solution.
Measurement of action potential was performed as follows. Specifically, the heart was quickly removed from each of the guinea pigs, and in a nutrition solution (Krebs-Henseleit) aerated with 95% O2+5% CO2 at room temperature, the right ventricular free wall was dissected to thereby prepare a myocardium sample. By use of an injection needle and platinum bipolar electrodes for electric stimulation, the sample was horizontally fixed onto a silicon block within a 20 ml organ bath (maintained at 36.5±0.5° C.) perfused with the nutrition solution aerated with 95% O2+5% CO2. During the test, the sample was electrically stimulated at a frequency of 1 Hz by means of rectangular pulses (voltage: about 1.3 times the threshold at which contraction of the sample is initiated, duration: 1 msec) provided from an electrostimulator via the platinum bipolar electrodes. The action potential of the cells was measured via glass microelectrodes (electrode resistance: 5 to 30 MΩ) which were filled with a 3 M KCl solution and connected to an amplifier for microelectrodes, and the action potential was recorded and analyzed by use of a computer. After electrical stimulation of the sample was continued for one hour or more, the action potential was measured before administration of the drug solution, and 10, 20, 30, 40, 50, and 60 minutes after administration of the drug solution. At each point in time, the action potential was measured and recorded in triplicate, and the average of the measured potentials was taken as the value for that point in time.
The drug solution (200 μL) was added to the 20 mL organ bath by use of a micropipette (final concentration of the drug solution in the bath: 100 μM). On the basis of the thus-measured action potential waveform, resting membrane potential (RMP), overshoot (OS), action potential amplitude (APA), action potential durations at 20%, 50%, and 90% repolarization (APD20, APD50, and APD90), and maximum rising velocity (Vmax) were obtained.
In each of the groups, the paired t-test was performed on the initial value of APD90 and on the action potential measured at each of the aforementioned points in time. Also, time-course variance analysis was performed, and the action potential after the 60 minute-exposure of the sample to the drug solution was subjected to the Tukey test, to thereby perform comparison between the groups. The level of significance was set at 5%, two-sided.

[4] = 100 μM, Time 10 (minutes after administration)
[5] = 100 μM, Time 20 (minutes after administration)
[6] = 100 μM, Time 30 (minutes after administration)
[7] = 100 μM, Time 40 (minutes after administration)
[8] = 100 μM, Time 50 (minutes after administration)
[9] = 100 μM, Time 60 (minutes after administration)
[10] = Time 0, initial value before administration of the drug solution

| Compound | antimicrobial activity, difference between the antipodes [1] | pharmacokinetic action in the body, difference between the antipodes [2] | myocardial action potential duration (APD90), Average [3, 4] | myocardial action potential duration (APD90), Average [3, 5] | myocardial action potential duration (APD90), Average [3, 6] | myocardial action potential duration (APD90), Average [3, 7] | myocardial action potential duration (APD90), Average [3, 8] | myocardial action potential duration (APD90), Average [3, 9] | relative strength of APD prolonging effect, Tukey test ([3]; 100 μM) | relative strength of APD prolonging effect ([3]; 100 μM) | myocardial action potential duration, effect of exposure ([3]; 100 μM) | APD prolonging effect (rate of change in APD90 with respect to the initial value), Average [3] | myocardial action potential duration (APD90), Average [3, 10] | further results |
| --- | --- | --- | --- | --- | --- | --- | --- | --- | --- | --- | --- | --- | --- | --- |
| COc1c(N2CCN[C@@H](C)C2)c(F)cc2c(=O)c(C(=O)O)cn(C3CC3)c12 [Compound (I), 1-Cyclopropyl-6-fluoro-1,4-dihydro-8-methoxy-7-{3-(S)-methylpiperazin-1-yl}-4-oxoquinoline-3-carboxylic acid] | no great difference | no great difference | 175.7500 | 180.2217 | 184.2600 | 190.6275 | 192.0675 | 193.5025 | compound (II)>gatifloxacin>compound (I) | compound (II)>gatifloxacin>compound (I) | significantly prolonged | 11.2206 | 170.3200 | antimicrobial activity (S. aureus, FDA 209-P): 0.05; antimicrobial activity (P. aeruginosa, 32104): 0.20; antimicrobial activity (S. epidermidis, 56500): 0.20; antimicrobial activity (S. marcescens, 101000): 0.10; antimicrobial activity (E. Coli, NIHJ): ≦0.003; antimicrobial activity (P. vulgaris 08601): 0.006; antimicrobial activity (P. aeruginosa, 32121): 0.10; antimicrobial activity (E. faecalis, 19433): 0.39; strength of APD prolonging effect compared with gatifloxacin and the antipode ([3]; 100 μM): significantly lower APD prolonging effect; also recorded: lower than that of the prolonging effect of gatifloxacin or compound (II) |
| COc1c(N2CCN[C@H](C)C2)c(F)cc2c(=O)c(C(=O)O)cn(C3CC3)c12 [Compound (II), 1-Cyclopropyl-6-fluoro-1,4-dihydro-8-methoxy-7-{3-(R)-methylpiperazin-1-yl}-4-oxoquinoline-3-carboxylic acid] | no great difference | no great difference | 185.9917 | 191.9500 | 194.2750 | 205.5900 | 203.1350 | 206.9400 | compound (II)>gatifloxacin>compound (I) | compound (II)>gatifloxacin>compound (I) | significantly prolonged | 17.1760 | 176.1567 |  |
| COc1c(N2CCNC(C)C2)c(F)cc2c(=O)c(C(=O)O)cn(C3CC3)c12 (stereo not shown) [Gatifloxacin] |  |  | 180.6120 | 184.9200 | 192.2467 | 190.8950 | 201.5533 | 196.4925 | compound (II)>gatifloxacin>compound (I) | compound (II)>gatifloxacin>compound (I) | significantly prolonged | 13.7789 | 174.8600 |  |
